{"source": "ChEMBL document CHEMBL2346628", "about": "“Real-time analysis of membrane permeabilizing effects of oleanane saponins” (Bioorg Med Chem, 2013)", "key": {"[1]": {"assay": "Hemolytic activity against human RBC at 48 uM after 30 mins", "format": "ADME, cell-based", "conditions": "erythrocyte, 0.5 h"}, "[2]": {"assay": "Hemolytic activity against human RBC at 24 uM after 30 mins relative to control", "format": "ADME, cell-based, Erythrocyte", "conditions": "red blood cells (RBC), read-out: Activity"}, "[3]": {"assay": "Hemolytic activity against human RBC up to 12 uM after 30 mins", "format": "ADME, cell-based", "conditions": "erythrocyte, 0.5 h"}, "[4]": {"assay": "Hemolytic activity against human RBC at 1.5 to 48 uM after 30 mins", "format": "ADME, cell-based", "conditions": "erythrocyte, 0.5 h"}, "ECV-304 [5]": {"test_system": "ECV-304", "assay": "Membrane permeabilization effect on lysosome of human ECV304 cells assessed as induction of membrane lysis up to 6 uM after 1 hr by N-Acetylglucosaminidase release assay", "format": "functional, cell-based"}, "ECV-304 [6]": {"test_system": "ECV-304", "assay": "Membrane permeabilization effect on lysosome of human ECV304 cells up to 48 uM after 1 hr by N-Acetylglucosaminidase release assay", "format": "functional, cell-based"}, "ECV-304 [7]": {"test_system": "ECV-304", "assay": "Membrane permeabilization effect on human ECV304 cells assessed as propidium iodide uptake up to 48 uM after 1 hr by FACS flow cytometric analysis", "format": "functional, cell-based"}, "ECV-304 [8]": {"test_system": "ECV-304", "assay": "Membrane permeabilization effect on human ECV304 cells assessed as normalized cell index at 24 uM measured every 15 secs for 3 hrs by real time impedance-based plate reader analysis relative to control relative to control", "format": "functional"}, "ECV-304 [9]": {"test_system": "ECV-304", "assay": "Membrane permeabilization effect on human ECV304 cells assessed as normalized cell index at 12 uM measured every 15 secs for 3 hrs by real time impedance-based plate reader analysis relative to control", "format": "functional"}, "ECV-304 [10]": {"test_system": "ECV-304", "assay": "Membrane permeabilization effect on human ECV304 cells at 3 to 6 uM measured every 15 secs for 3 hrs by real time impedance-based plate reader analysis", "format": "functional, cell-based"}, "ECV-304 [11]": {"test_system": "ECV-304", "assay": "Membrane permeabilization effect on human ECV304 cells at 3 to 24 uM measured every 15 secs for 3 hrs by real time impedance-based plate reader analysis", "format": "functional, cell-based"}, "ECV-304 [12]": {"test_system": "ECV-304", "assay": "Membrane permeabilization effect on human ECV304 cells assessed as induction of membrane lysis at 48 uM after 1 hr", "format": "functional, cell-based"}, "ECV-304 [13]": {"test_system": "ECV-304", "assay": "Membrane permeabilization effect on human ECV304 cells assessed as increase in propidium iodide uptake at 24 uM after 1 hr by FACS flow cytometric analysis", "format": "functional, cell-based"}, "ECV-304 [14]": {"test_system": "ECV-304", "assay": "Membrane permeabilization effect on human ECV304 cells up to 12 uM measured every 15 secs for 3 hrs by real time impedance-based plate reader analysis", "format": "functional, cell-based"}, "ECV-304 [15]": {"test_system": "ECV-304", "assay": "Membrane permeabilization effect on lysosome of human ECV304 cells assessed as induction of membrane lysis at 3 to 48 uM after 1 hr by N-Acetylglucosaminidase release assay", "format": "functional, cell-based"}, "ECV-304 [16]": {"test_system": "ECV-304", "assay": "Membrane permeabilization effect on human ECV304 cells assessed as propidium iodide uptake at 3 to 48 uM after 1 hr by FACS flow cytometric analysis", "format": "functional, cell-based"}, "ECV-304 [17]": {"test_system": "ECV-304", "assay": "Membrane permeabilization on human ECV304 cells at 24 uM measured every 15 secs for 3 hrs by real time impedance-based plate reader analysis", "format": "functional, cell-based"}}, "note": "Active and inactive are the calls of the source. The calls are words filed in the database; no cut-off is given here."}
{"smiles": "CCC(C)C(CC(O)CC(=O)O[C@H]1[C@@H](O)[C@@H](C)O[C@@H](OC(=O)[C@]23CCC(C)(C)C[C@H]2C2=CC[C@@H]4[C@@]5(C)CC[C@H](O[C@H]6O[C@H](C(=O)O)[C@@H](O)[C@H](O[C@@H]7OC[C@@H](O)[C@H](O)[C@H]7O)[C@H]6O[C@@H]6O[C@H](CO)[C@H](O)[C@H](O)[C@H]6O)[C@@](C)(C=O)[C@@H]5CC[C@@]4(C)[C@]2(C)C[C@H]3O)[C@@H]1O[C@@H]1O[C@@H](C)[C@H](O[C@@H]2OC[C@@H](O)[C@H](O[C@@H]3OCC(O)(O)[C@H]3O)[C@H]2O)[C@@H](O[C@@H]2O[C@H](CO)[C@@H](O)[C@H](O)[C@H]2O)[C@H]1O)OC(=O)CC(O)CC(O[C@@H]1O[C@@H](CO)[C@H](O)[C@H]1O[C@@H]1O[C@@H](C)[C@H](O)[C@@H](O)[C@H]1O)C(C)CC", "note": "(stereo in doubt; form 2) [listing 1 of 2 here]", "values": [{"measurement": "Activity", "setting": "[1]", "result": "Toxic"}, {"measurement": "hemolysis at 0.5 h, 24 µM", "setting": "[2]", "result": 61, "unit": "%"}, {"measurement": "Activity", "setting": "[3]", "result": "Non-toxic"}]}
{"smiles": "CC1(C)[C@@H](O[C@H]2O[C@H](C(=O)O)[C@@H](O)[C@H](O)[C@H]2O[C@@H]2O[C@H](C(=O)O)[C@@H](O)[C@H](O)[C@H]2O)CC[C@]2(C)[C@H]3C(=O)C=C4[C@@H]5C[C@@](C)(C(=O)O)CC[C@]5(C)CC[C@@]4(C)[C@]3(C)CC[C@@H]12", "note": "[GLYCYRRHIZIN]", "values": [{"measurement": "Activity", "setting": "[4]", "result": "Non-toxic"}, {"measurement": "Activity", "setting": "ECV-304 [5]", "result": "inactive"}, {"measurement": "Activity", "setting": "ECV-304 [6]", "result": "inactive"}, {"measurement": "Activity", "setting": "ECV-304 [7]", "result": "inactive"}, {"measurement": "Activity", "setting": "ECV-304 [8]", "result": "inactive"}, {"measurement": "Activity", "setting": "ECV-304 [9]", "result": "inactive"}, {"measurement": "Activity", "setting": "ECV-304 [10]", "result": "inactive"}, {"measurement": "Activity", "setting": "ECV-304 [11]", "result": "inactive"}]}
{"smiles": "CCC(C)C(CC(O)CC(=O)O[C@H]1[C@@H](O)[C@@H](C)O[C@@H](OC(=O)[C@]23CCC(C)(C)C[C@H]2C2=CC[C@@H]4[C@@]5(C)CC[C@H](O[C@H]6O[C@H](C(=O)O)[C@@H](O)[C@H](O[C@@H]7OC[C@@H](O)[C@H](O)[C@H]7O)[C@H]6O[C@@H]6O[C@H](CO)[C@H](O)[C@H](O)[C@H]6O)[C@@](C)(C=O)[C@@H]5CC[C@@]4(C)[C@]2(C)C[C@H]3O)[C@@H]1O[C@@H]1O[C@@H](C)[C@H](O[C@@H]2OC[C@@H](O)[C@H](O[C@@H]3OCC(O)(O)[C@H]3O)[C@H]2O)[C@@H](O[C@@H]2O[C@H](CO)[C@@H](O)[C@H](O)[C@H]2O)[C@H]1O)OC(=O)CC(O)CC(O[C@@H]1O[C@@H](CO)[C@H](O)[C@H]1O[C@@H]1O[C@@H](C)[C@H](O)[C@@H](O)[C@H]1O)C(C)CC", "note": "(stereo in doubt; form 1)", "values": [{"measurement": "Activity", "setting": "ECV-304 [5]", "result": "inactive"}, {"measurement": "Activity", "setting": "ECV-304 [12]", "result": "Active"}, {"measurement": "Activity", "setting": "ECV-304 [13]", "result": "Active"}, {"measurement": "Activity", "setting": "ECV-304 [14]", "result": "inactive"}]}
{"smiles": "CCC(C)C(CC(O)CC(=O)O[C@H]1[C@@H](O)[C@@H](C)O[C@@H](OC(=O)[C@]23CCC(C)(C)C[C@H]2C2=CC[C@@H]4[C@@]5(C)CC[C@H](O[C@H]6O[C@H](C(=O)O)[C@@H](O)[C@H](O[C@@H]7OC[C@@H](O)[C@H](O)[C@H]7O)[C@H]6O[C@@H]6O[C@H](CO)[C@H](O)[C@H](O)[C@H]6O)[C@@](C)(C=O)[C@@H]5CC[C@@]4(C)[C@]2(C)C[C@H]3O)[C@@H]1O[C@@H]1O[C@@H](C)[C@H](O[C@@H]2OC[C@@H](O)[C@H](O[C@@H]3OCC(O)(O)[C@H]3O)[C@H]2O)[C@@H](O[C@@H]2O[C@H](CO)[C@@H](O)[C@H](O)[C@H]2O)[C@H]1O)OC(=O)CC(O)CC(O[C@@H]1O[C@@H](CO)[C@H](O)[C@H]1O[C@@H]1O[C@@H](C)[C@H](O)[C@@H](O)[C@H]1O)C(C)CC", "note": "(stereo in doubt; form 2) [listing 2 of 2 here]", "values": [{"measurement": "Activity", "setting": "ECV-304 [15]", "result": "inactive"}, {"measurement": "Activity", "setting": "ECV-304 [5]", "result": "inactive"}, {"measurement": "Activity", "setting": "ECV-304 [16]", "result": "inactive"}, {"measurement": "Activity", "setting": "ECV-304 [17]", "result": "inactive"}]}
